These results are taken from ChEMBL document CHEMBL1201862, “PubChem BioAssay data set” (2004).

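48-hour exposure; five concentrations; linearly interpolated endpoints. At the GI50, growth is halved.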 The source made the active and inactive calls. Cut-off read from the data, not from the text of the source: active = GI50 up to about 1.1 µM and inactive = higher.

Common to all, as to assay: NCI anticancer screen, dose series, 48 h
The test system of assay [1] is CAKI-1.
In assay [2] the test system is DU-145.
For assay [3], the system named is HCT-116.
In assay [4] the test system is HCT-15.
Assay [5] relates to KM12.
Assay [6] relates to M14.
For assay [7], the system named is MDA-N.
Assay [8] concerns NCI-H23.
Assay [9] concerns NCI/ADR-RES.
Assay [10] deals with OVCAR-3.
Assay [11] has as its system OVCAR-8.
For assay [12], the system named is RPMI-8226.
The subject of assay [13] is RXF 393.
In assay [14] the test system is SF-295.
Assay [15] deals with SK-MEL-5.
For assay [16], the system named is SNB-19.
In assay [17] the test system is SW-620.
Assay [18] has as its system UACC-257.
The test system of assay [19] is BT-549.

`N[C@H](Cc1ccc2oc3cc(=O)c4ccccc4c-3nc2c1)C(=O)O`: the GI50 in assay [1] is > 100 µM (inactive); in [2], 21.7 µM (inactive); in [3] it was 46.3 µM (inactive); in assay [4], 39.4 µM; in assay [5], 37.3 µM (inactive); in assay [6] it was 19.3 µM (inactive). The GI50 was 15.3 µM (inactive) in assay [7]; 23.7 µM (inactive) in assay [8]; > 100 µM (inactive) in assay [9]; 29.2 µM (inactive) in [10]; 30.5 µM (inactive) in [11]; 24.2 µM (inactive) in [12]. Also, the GI50 in assay [13] was 70.1 µM (inactive); in [14], 42 µM (inactive); in [15], 20.1 µM (inactive); in [16], 34.4 µM (inactive); in assay [17], 46.7 µM (inactive); in [18], 29.8 µM (inactive).

For `Nc1ccc2c(c1)C(=O)c1ccccc1-2`, the GI50 was 34 µM (inactive) in [19]; 56.5 µM (inactive) in assay [1]; > 100 µM (inactive) in assay [2]; > 100 µM (inactive) in [3]; 95.5 µM in assay [4]; 62.5 µM (inactive) in assay [5]. Moreover, the GI50 in [6] is 57.4 µM (inactive); in assay [8], > 100 µM (inactive); in assay [9], > 100 µM (inactive); in assay [10] it was 55.7 µM (inactive); in [11], 54.8 µM (inactive); in assay [12], > 100 µM (inactive). The GI50 is > 100 µM (inactive) in [13]; > 100 µM (inactive) in [14]; > 100 µM (inactive) in [15]; > 100 µM (inactive) in assay [16]; 68.1 µM (inactive) in assay [17]; > 100 µM (inactive) in [18].

Consider `COc1ccc(Nc2nc3c([nH]2)c(=O)n(C)c(=O)n3C)cc1`, for which the GI50 was > 10 µM (inactive) in assay [1]; > 10 µM (inactive) in assay [2]; over 10 µM in [4]; > 10 µM (inactive) in [5]; > 10 µM (inactive) in assay [6]; > 10 µM (inactive) in [7]. For the same compound, the GI50 in [8], in assay [11], in assay [12], in assay [13], in [14] and in assay [15] was > 10 µM (inactive) throughout. Moreover, the GI50 in assay [17] and in assay [18] was > 10 µM (inactive) each time.

On to `O=C(NC1CCCCC1NC(c1ccccc1)(c1ccccc1)c1ccccc1)C(=O)NC1CCCCC1NC(c1ccccc1)(c1ccccc1)c1ccccc1` (configuration not stated), for which the GI50 in assay [19] was 28.1 µM (inactive); in assay [1] it was > 100 µM (inactive); in assay [2], > 100 µM (inactive); in [3], > 100 µM (inactive); in [4], over 100 µM; in assay [5] it was > 100 µM (inactive). Also, the GI50 in [8] is > 100 µM (inactive); in assay [9] it was 81.5 µM (inactive); in [10], > 100 µM (inactive); in assay [11], > 100 µM (inactive); in [12], > 100 µM (inactive); in [14] it was > 100 µM (inactive). For the same compound, the GI50 in assay [15], in assay [16], in [17] and in assay [18] was > 100 µM (inactive) throughout.

As for `Cc1cn(C2C=CC(COP(=O)(OCc3ccc([N+](=O)[O-])o3)N(C)CCCCCl)O2)c(=O)[nH]c1=O` (configuration not stated), the GI50 is 16 µM (inactive) in assay [1]; 13.3 µM (inactive) in assay [2]; 8.65 µM (inactive) in [3]; 16.6 µM in assay [4]; 6.68 µM (inactive) in assay [5]; 4.69 µM (inactive) in assay [6]. The GI50 in assay [7] was 2.63 µM (inactive); in assay [8] it was 3.05 µM (inactive); in assay [9], 33.8 µM (inactive); in assay [10] it was 1.75 µM (inactive); in assay [11], 13.9 µM (inactive); in assay [12], 2.69 µM (inactive). In addition, the GI50 in [13] was 2.38 µM (inactive); in assay [14], 15.6 µM (inactive); in assay [15] it was 1.22 µM (inactive); in assay [16], 6.58 µM (inactive); in assay [17], 10.1 µM (inactive); in assay [18], 5.55 µM (inactive).

On to `CCC(NC(C)c1ccccc1)C(O)c1ccc(OCc2ccccc2)c(OCc2ccccc2)c1` (configuration not stated), for which the GI50 in [1] was 11.9 µM (inactive); in assay [2] it was 18.2 µM (inactive); in [3], 14.5 µM (inactive); in assay [4], 14.5 µM; in assay [5], 5.81 µM (inactive); in assay [6], 4.86 µM (inactive). The GI50 is 15.3 µM (inactive) in assay [7]; 16.4 µM (inactive) in assay [8]; 15.8 µM (inactive) in assay [9]; 12 µM (inactive) in [10]; 14.1 µM (inactive) in [11]; 4.04 µM (inactive) in [12]. For the same compound, the GI50 in assay [13] was 8.65 µM (inactive); in [14] it was 20.4 µM (inactive); in assay [15] it was 4.45 µM (inactive); in [16], 14.5 µM (inactive); in [17] it was 4.57 µM (inactive); in assay [18], 4.04 µM (inactive).

Consider `CO/C(=N\N=C\c1cc(OC)ccc1OC)c1ccncc1`, for which the GI50 in [3] was > 10 µM (inactive); in [4], over 10 µM; in assay [5], > 10 µM (inactive); in assay [7], > 10 µM (inactive); in assay [8] it was > 10 µM (inactive); in assay [9], > 10 µM (inactive). Also, the GI50 in assay [11], in assay [12], in assay [13], in assay [14], in assay [15] and in assay [16] was > 10 µM (inactive) in each case. Also, the GI50 in assay [17] was > 10 µM (inactive).

On to `COC(=O)CSc1[nH]c2nc(C)nc(Nc3ccccc3)c2c1C#N`, for which the GI50 in assay [1] was > 10 µM (inactive); in assay [2], > 10 µM (inactive); in [4], over 10 µM; in assay [5], > 10 µM (inactive); in assay [6], > 10 µM (inactive); in [7], > 10 µM (inactive). The GI50 in [8], in assay [11], in [12], in [13], in assay [14] and in assay [15] was > 10 µM (inactive) in each case. Moreover, the GI50 in [17] and in assay [18] was > 10 µM (inactive) throughout.

`O=[N+]([O-])/C(Cl)=C(\Sc1ccccc1)C(Cl)=C(Cl)Cl`: the GI50 in [1] was 1.83 µM (inactive); in assay [2], 1.71 µM (inactive); in assay [3], 0.147 µM (active); in assay [4], 0.42 µM; in [5], 1.79 µM (inactive); in [6] it was 0.188 µM (active). Also, the GI50 was 0.288 µM (active) in assay [7]; 0.473 µM (active) in assay [8]; 0.216 µM (active) in assay [9]; 1.52 µM (inactive) in assay [10]; 0.191 µM (active) in assay [11]; 0.242 µM (active) in assay [12]. Further, the GI50 is 0.975 µM (active) in assay [13]; 3.43 µM (inactive) in assay [14]; 0.54 µM (active) in [15]; 2.22 µM (inactive) in [16]; 0.404 µM (active) in assay [18].

Take `CCOC(=O)C1(Cc2ccccc2)Cc2ccccc2C1=O` (configuration not stated): the GI50 in assay [2] was 45.2 µM (inactive); in [3], 27.4 µM (inactive); in assay [4], 30.9 µM; in assay [5], 26.6 µM (inactive); in assay [6], 16.6 µM (inactive); in assay [7] it was 16.4 µM (inactive). Further, the GI50 was 17.3 µM (inactive) in assay [8]; 21.9 µM (inactive) in assay [9]; 30.8 µM (inactive) in assay [10]; 28.8 µM (inactive) in assay [11]; 20.4 µM (inactive) in assay [12]; 37.1 µM (inactive) in assay [14]. Also, the GI50 in [15] is 15.1 µM (inactive); in assay [17] it was 33.7 µM (inactive); in [18], > 10 µM (inactive).

Consider `O=c1c2cc([N+](=O)[O-])ccc2n2n1CCCCC2`, for which the GI50 was > 100 µM (inactive) in assay [1]; > 100 µM (inactive) in assay [2]; > 100 µM (inactive) in [3]; over 100 µM in [4]; > 100 µM (inactive) in assay [5]; > 100 µM (inactive) in [6]. Further, the GI50 in [7], in assay [8], in assay [9], in assay [10], in assay [11] and in assay [12] was > 100 µM (inactive) each time. For the same compound, the GI50 in [13], in assay [14], in assay [15], in assay [16], in assay [17] and in assay [18] was > 100 µM (inactive) in each case.

Take `COc1cc(-c2oc3c(OC)c(O)c(OC)c(O)c3c(=O)c2OC)cc(O)c1OC`: the GI50 in assay [1] is 24.5 µM (inactive); in [2], 37.1 µM (inactive); in [3], 36.1 µM (inactive); in assay [4] it was 35.3 µM; in assay [5], 14.3 µM (inactive); in [6], 38.3 µM (inactive). Besides, the GI50 in assay [7] is 17.7 µM (inactive); in assay [8] it was 22.6 µM (inactive); in assay [9] it was 17.6 µM (inactive); in assay [10], 24.7 µM (inactive); in [11], 37.9 µM (inactive); in assay [12], 23.8 µM (inactive). Besides, the GI50 in [13] was 27.1 µM (inactive); in assay [14] it was 15.8 µM (inactive); in [15] it was 21.4 µM (inactive); in [16], 65.9 µM (inactive); in assay [17], 44.3 µM (inactive); in assay [18], 51.2 µM (inactive).
